“Also recorded” adds a separate entry of the source.
What was measured:
LNCaP cells [1] = experiment: Expression profiling of 5-Aza treated LNCaP cells (Agilent 44K array, one-class SAM); format: cell-based, human; conditions: 6 μM 5-Aza for 4 or 6 days vs DMSO, 5% false discovery rate, number of methylated genes on the array
Experimental: Significance analysis of microarray (SAM) (Tusher et al. Proc Natl Acad Sci USA 98: 5116-5121 2001) was performed on the gene expression dataset obtained from 5-Aza and DMSO-treated LNCaP cells by selecting genes that were methylated in LNCaP. From 1,171 methylated genes from LNCaP M-NGS (Table 1), a total of 973 genes were mapped to Agilent expression profiling data. One-class SAM analysis was done using default settings and significant genes were calculated with a false discovery rate (FDR) of 0.05.
For 5-Aza stimulation experiments, LNCaP cells cultured in RPMI 1640 were treated with vehicle, dimethyl sulfoxide (DMSO) or 6 μM 5-Aza for 4 or 6 days in duplicates. Total RNA was isolated with Trizol (Life Technologies, Carlsbad, Calif.) and further purified using RNAeasy Micro Kit (Qiagen, Valencia, Calif.) according to the manufacturer's instructions. Expression profiling was performed using the Agilent 44K expression array. One microgram of total RNA was converted to cRNA and then labeled according to the manufacturer's protocol (Agilent). Hybridizations were performed for 16 h at 65° C. Scanned images from Agilent microarray scanner were analyzed and extracted using Agilent Feature Extraction Software 9.1.3.1 with linear and lowess normalization performed for each array. […]

LNCaP cells [2] = experiment: Quantitative real time PCR of transcript variants in 5-Aza treated LNCaP cells; format: cell-based, human; conditions: 5-Aza treatment vs DMSO
Experimental: Total RNA was isolated from cells using RNeasy mini kit (Qiagen, Valencia, Calif.) according to manufacturer's instructions. A DNAseI treatment step was included during the total RNA isolation procedure to remove genomic DNA from the samples. One microgram of total RNA was used in cDNA synthesis using Superscript III reverse transcriptase (Invitrogen, Carlsbad, Calif.). Quantitative real time PCR (QPCR) was performed on prostate cell line cDNA samples using SYBR Green Mastermix (Applied Biosystems) on an Applied Biosystems 7900 Real Time PCR system as described (Tomlins et al. 2007, Nat Genet 39: 41-51). GAPDH primers sequences were as described (Vandesompele et al. 2002, Genome Biol 3: RESEARCH0034). The amount of target transcript and GAPDH in each sample was normalized by standard ddCt methodology, and then to the reference PrEC or DMSO-treated LNCaP samples accordingly.
For 5-Aza stimulation experiments, LNCaP cells cultured in RPMI 1640 were treated with vehicle, dimethyl sulfoxide (DMSO) or 6 μM 5-Aza for 4 or 6 days in duplicates. Total RNA was isolated with Trizol (Life Technologies, Carlsbad, Calif.) and further purified using RNAeasy Micro Kit (Qiagen, Valencia, Calif.) according to the manufacturer's instructions. Expression profiling was performed using the Agilent 44K expression array. One microgram of total RNA was converted to cRNA and then labeled according to the manufacturer's protocol (Agilent). Hybridizations were performed for 16 h at 65° C. Scanned images from Agilent microarray scanner were analyzed and extracted using Agilent Feature Extraction Software 9.1.3.1 with linear and lowess normalization performed for each array. A total of 4 hybridizations were performed including two 4 day and two 6 day 5-Aza treated samples (Cy5) against control DMSO-treated samples (Cy3). The accession number for gene expression dataset in the GEO database is GSE27619.

Nc1ncn([C@H]2C[C@H](O)[C@@H](CO)O2)c(=O)n1 [5-Aza, 5-Aza-2′-deoxycytidine]
upregulation of LNCaP methylated genes (SAM) (LNCaP cells [1]): 246 out of 973 | re-expression of CpG-methylated APC variant-2 and -3 (LNCaP cells [2]): preferentially re-expressed; also recorded: re-expression | re-expression of CpG-methylated NDRG2 variants 1-4 (LNCaP cells [2]): preferentially re-expressed; also recorded: re-expression | re-expression of CpG-methylated RASSF1 variant-1 transcript (LNCaP cells [2]): preferential re-expression

Reference: patent US20130022974A1, “DNA METHYLATION PROFILES IN CANCER” (THE REGENTS OF THE UNIVERSITY OF MICHIGAN, priority 2011, published 2013)
